Measured values as given in paper PMC4946969 (ACS chemical biology, 2016).

Legend:
S. epidermidis AgrC-II = test: AgrC-II modulation, Group-II GFP reporter strain AH3567; format: cell-based, Staphylococcus epidermidis
S. epidermidis AgrC-I [1] = molecular target: T1, S. epidermidis AgrC-I (Staphylococcus epidermidis, UniProt Q5HMY3); format: cell-based; conditions: for IC50: AgrC-I antagonism dose response, peptide alone, Group-I reporter strain, 24 h
S. epidermidis AgrC-I [2] = molecular target: T1, S. epidermidis AgrC-I; format: cell-based; conditions: AgrC-I activation dose response in the presence of 50 nM S. epidermidis AIP-II
S. epidermidis AgrC-III = test: AgrC-III modulation, Group-III GFP reporter strain AH3409; format: cell-based, Staphylococcus epidermidis; conditions: initial single-concentration screen, 10 μM (Figures S-2, 2A)

For “I-N-(C-A-F-L-L) [S. aureus AIP-III D4A, reference compound]”, the “Activity toward Group-II (AgrC-II) at lower concentration” value (S. epidermidis AgrC-II; 100 nM (lower-concentration screen 1 μM or 100 nM; Figure 2A)) was “inhibiting exclusively Group-II”, the IC50 (S. epidermidis AgrC-I [1]) was “Inactive ^c” and the EC50 (S. epidermidis AgrC-I [2]) was “Inactive ^c”.

D-S-V-(DC-A-S-Y-F) [AIP-I D-C4] was tested, and the IC50 (S. epidermidis AgrC-I [1]) was “Inactive ^c” and the EC50 (S. epidermidis AgrC-I [2]) was “Inactive ^c”.

With D-S-V-(C-A-S-A-F) [AIP-I Y7A] the “AgrC-II (Group-II) inhibition, single concentration” value (S. epidermidis AgrC-II; initial single-concentration screen, 10 μM (Figures S-1, 2A)) was ~ 50%, the IC50 (S. epidermidis AgrC-I [1]) was “Inactive ^c” and the EC50 (S. epidermidis AgrC-I [2]) was “Inactive ^c”. The “AgrC-III (Group-III) inhibition, single concentration” value (S. epidermidis AgrC-III) was ~ 50%.

In the case of D-S-V-(C-A-S-DY-F) [AIP-I D-Y7], the IC50 (S. epidermidis AgrC-I [1]) is reported as “Inactive ^c” and the EC50 (S. epidermidis AgrC-I [2]) is reported as “Inactive ^c”.

With D-S-V-(C-S-S-Y-F) [A5S-2] the “AgrC-I dose response behaviour” value (S. epidermidis AgrC-I [1]; two isolated AIP-I A5S products) was “very weak inhibition at low concentrations yet activation at higher concentrations”.

With “Y-S-T-(C-D-F-I-M) [S. aureus AIP-I, reference compound]” the IC50 (S. epidermidis AgrC-I [1]) was “Inactive ^c” and the EC50 (S. epidermidis AgrC-I [2]) was “Inactive ^c”.

In the case of D-S-V-(C-A-S-Y-A) [AIP-I F8A], the IC50 (S. epidermidis AgrC-I [1]) is reported as “Inactive ^c” and the EC50 (S. epidermidis AgrC-I [2]) is reported as “Inactive ^c”.

With “I-N-(C-D-F-L-L) [S. aureus AIP-III, reference compound]” the IC50 (S. epidermidis AgrC-I [1]) was “Inactive ^c” and the EC50 (S. epidermidis AgrC-I [2]) was “Inactive ^c”.

With D-S-V-(C-DA-S-Y-F) [AIP-I D-A5] the IC50 (S. epidermidis AgrC-I [1]) was “Inactive ^c” and the EC50 (S. epidermidis AgrC-I [2]) was “Inactive ^c”.
